# According to article PMC5785997, “2-Phenylquinazolinones as dual-activity tankyrase-kinase inhibitors” (Scientific Reports, 2018):
# Experiments:
# [1] = biological target: T1, ARTD7/PARP15 (Homo sapiens, UniProt Q460N3); experiment: ARTD profiling, ARTD7
# T1 sequence (Q460N3 482-678 limits assumed): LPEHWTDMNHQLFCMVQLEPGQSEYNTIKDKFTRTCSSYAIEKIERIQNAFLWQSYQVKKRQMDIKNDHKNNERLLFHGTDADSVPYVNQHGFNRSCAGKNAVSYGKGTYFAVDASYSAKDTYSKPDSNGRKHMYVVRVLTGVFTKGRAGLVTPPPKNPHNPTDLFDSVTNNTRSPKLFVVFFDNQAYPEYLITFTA
# [2] = biological target: ARTD2/PARP2 (Homo sapiens, UniProt Q9UGN5); experiment: ARTD profiling, ARTD2
# Chain of ARTD2/PARP2 (Q9UGN5 whole entry): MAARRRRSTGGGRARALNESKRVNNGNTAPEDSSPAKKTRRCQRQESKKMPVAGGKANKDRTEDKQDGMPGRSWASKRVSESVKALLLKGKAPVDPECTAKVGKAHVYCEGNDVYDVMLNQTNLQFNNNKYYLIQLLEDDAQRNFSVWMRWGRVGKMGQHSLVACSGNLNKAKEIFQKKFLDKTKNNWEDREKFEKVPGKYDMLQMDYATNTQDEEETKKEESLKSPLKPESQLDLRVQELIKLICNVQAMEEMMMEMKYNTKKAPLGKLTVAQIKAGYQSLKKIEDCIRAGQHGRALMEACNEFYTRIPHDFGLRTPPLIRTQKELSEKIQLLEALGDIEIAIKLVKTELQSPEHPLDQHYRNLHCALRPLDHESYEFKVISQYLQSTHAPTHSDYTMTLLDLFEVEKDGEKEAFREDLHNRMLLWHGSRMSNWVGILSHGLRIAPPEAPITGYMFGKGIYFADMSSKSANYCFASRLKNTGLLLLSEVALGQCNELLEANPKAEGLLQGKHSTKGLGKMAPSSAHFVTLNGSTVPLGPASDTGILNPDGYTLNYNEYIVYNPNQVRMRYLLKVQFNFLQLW
# [3] = biological target: T2, human CK2α-1 (Homo sapiens, UniProt P68400); experiment: ADP-Glo kinase assay, CK2; format: biochemical; conditions: read-out: CK2 (% Inhib.); for inhibition at 1 µM: 1 µM compound, Table S3; for inhibition at 10 µM: 10 µM compound, Table S4
# T2 construct: purchased Promega V4,482
# T2 sequence (P68400 whole entry): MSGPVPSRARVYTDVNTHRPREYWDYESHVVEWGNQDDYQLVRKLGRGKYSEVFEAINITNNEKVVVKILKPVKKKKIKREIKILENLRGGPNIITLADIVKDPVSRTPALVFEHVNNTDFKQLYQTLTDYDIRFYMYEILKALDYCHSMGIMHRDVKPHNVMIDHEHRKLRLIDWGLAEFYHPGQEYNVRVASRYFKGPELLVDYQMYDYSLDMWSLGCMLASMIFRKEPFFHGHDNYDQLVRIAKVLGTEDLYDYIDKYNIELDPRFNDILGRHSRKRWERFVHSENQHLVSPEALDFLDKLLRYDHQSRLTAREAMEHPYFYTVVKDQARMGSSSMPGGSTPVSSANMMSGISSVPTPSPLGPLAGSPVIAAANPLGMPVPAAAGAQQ
# Procedure: The kinase functional assays were performed using a combination of kinase and 1.5 μM peptide substrate in the presence of ATP. The reaction mixture was analyzed on the Caliper LabChip 3,000 (Caliper, Hopkinton, MA) by the electrophoretic mobility shift of the fluorescent substrate and phosphorylated product. For the inhibition of human CK2α-1, the experiments were carried out with ADP-Glo kinase Assay Kit (Promega V9,101). Assays are described in detail in the Supplementary Methods and Table S6. […]
# Dose-response curves were generated to determine the concentration required to inhibit 50% of kinase activity (IC50). Staurosporine (Invitrogen BP2,451) was included as a positive control of each enzymatic assay. The profiling of the kinases was done at 1 and at 10 μM of the compound.
# For the inhibition of human CK2α-1, the experiments were carried out in a white 384-microplate low flange (Corning 3,572) with ADP-Glo kinase Assay Kit (Promega V9101) and CK2α-1 Kinase Enzyme System (Promega V4,482). The test compounds and standard staurosporine (Invitrogen BP2451), 25 ng/well CK2α-1 kinase and 50 µM ATP were added in a final volume of 10 µl/well using reaction buffer supplied by kit as assay buffer. The reaction mixture was incubated in gentle shaking for 60 minutes at room temperature. After the incubation 10 µl of ADP-Glo reagent was added and incubated in gentle shaking for 40 minutes at room temperature. Finally 20 µl of Kinase Detection Reagent was added and the plate was incubated on a shaker for 30 minutes at room […]
# temperature. […]
# [4] = biological target: GSK3β (Homo sapiens, UniProt P49841); experiment: Kinase functional assay (mobility shift), GSK3β; format: biochemical; conditions: read-out: GSK3β (% Inhib.); for inhibition at 1 µM: 1 µM compound, Table S3; for inhibition at 10 µM: 10 µM compound, Table S4
# Chain of GSK3β (P49841 whole entry, species assumed): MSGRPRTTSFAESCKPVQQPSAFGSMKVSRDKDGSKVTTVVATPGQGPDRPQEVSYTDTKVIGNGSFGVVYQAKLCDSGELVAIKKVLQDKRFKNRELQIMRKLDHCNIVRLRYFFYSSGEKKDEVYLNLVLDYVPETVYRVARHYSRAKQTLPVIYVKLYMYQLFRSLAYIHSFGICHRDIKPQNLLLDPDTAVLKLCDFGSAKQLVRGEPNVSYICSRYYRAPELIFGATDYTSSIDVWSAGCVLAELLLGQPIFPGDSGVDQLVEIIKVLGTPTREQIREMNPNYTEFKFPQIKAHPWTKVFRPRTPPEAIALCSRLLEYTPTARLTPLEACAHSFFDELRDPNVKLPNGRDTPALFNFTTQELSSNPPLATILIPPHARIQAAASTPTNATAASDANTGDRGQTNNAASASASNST
# [5] = biological target: CDK9 (Homo sapiens, UniProt P50750); experiment: Kinase functional assay (mobility shift), CDK9; format: biochemical; conditions: read-out: CDK9 (% Inhib.); for inhibition at 1 µM: 1 µM compound, Table S3; for inhibition at 10 µM: 10 µM compound, Table S4
# Chain of CDK9 (P50750 whole entry, species assumed): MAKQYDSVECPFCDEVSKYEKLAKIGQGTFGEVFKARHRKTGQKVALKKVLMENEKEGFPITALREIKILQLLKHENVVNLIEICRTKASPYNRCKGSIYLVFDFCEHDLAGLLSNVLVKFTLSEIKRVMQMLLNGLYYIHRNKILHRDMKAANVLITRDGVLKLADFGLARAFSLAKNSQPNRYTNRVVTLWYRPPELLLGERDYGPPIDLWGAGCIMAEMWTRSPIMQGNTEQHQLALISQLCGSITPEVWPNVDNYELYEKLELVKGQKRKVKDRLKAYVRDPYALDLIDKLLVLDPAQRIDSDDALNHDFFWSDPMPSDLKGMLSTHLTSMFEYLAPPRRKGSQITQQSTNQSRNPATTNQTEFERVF
# Chain of CDK9 (O60563 whole entry partner, species assumed): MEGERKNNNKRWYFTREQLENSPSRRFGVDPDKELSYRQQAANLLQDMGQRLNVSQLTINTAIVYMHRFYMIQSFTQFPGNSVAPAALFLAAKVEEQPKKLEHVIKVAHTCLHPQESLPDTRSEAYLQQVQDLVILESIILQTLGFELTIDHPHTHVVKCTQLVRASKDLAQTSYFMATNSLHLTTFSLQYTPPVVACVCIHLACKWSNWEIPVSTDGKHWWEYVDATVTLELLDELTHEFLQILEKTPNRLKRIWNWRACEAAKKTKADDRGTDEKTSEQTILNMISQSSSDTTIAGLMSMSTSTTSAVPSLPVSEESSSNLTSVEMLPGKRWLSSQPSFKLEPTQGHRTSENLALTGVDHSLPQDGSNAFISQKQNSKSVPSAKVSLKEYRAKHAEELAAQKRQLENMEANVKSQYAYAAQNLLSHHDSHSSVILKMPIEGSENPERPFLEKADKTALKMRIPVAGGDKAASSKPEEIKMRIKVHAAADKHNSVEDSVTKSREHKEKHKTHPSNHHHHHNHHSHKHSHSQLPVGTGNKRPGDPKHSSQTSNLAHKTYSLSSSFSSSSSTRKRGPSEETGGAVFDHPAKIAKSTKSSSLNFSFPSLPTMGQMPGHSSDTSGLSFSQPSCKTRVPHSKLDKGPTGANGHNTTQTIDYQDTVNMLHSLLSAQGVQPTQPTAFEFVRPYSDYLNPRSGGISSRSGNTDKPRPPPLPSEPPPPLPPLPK
# [6] = biological target: ARTD1/PARP1 (Homo sapiens, UniProt P09874); experiment: ARTD profiling, ARTD1
# Chain of ARTD1/PARP1 (P09874 whole entry): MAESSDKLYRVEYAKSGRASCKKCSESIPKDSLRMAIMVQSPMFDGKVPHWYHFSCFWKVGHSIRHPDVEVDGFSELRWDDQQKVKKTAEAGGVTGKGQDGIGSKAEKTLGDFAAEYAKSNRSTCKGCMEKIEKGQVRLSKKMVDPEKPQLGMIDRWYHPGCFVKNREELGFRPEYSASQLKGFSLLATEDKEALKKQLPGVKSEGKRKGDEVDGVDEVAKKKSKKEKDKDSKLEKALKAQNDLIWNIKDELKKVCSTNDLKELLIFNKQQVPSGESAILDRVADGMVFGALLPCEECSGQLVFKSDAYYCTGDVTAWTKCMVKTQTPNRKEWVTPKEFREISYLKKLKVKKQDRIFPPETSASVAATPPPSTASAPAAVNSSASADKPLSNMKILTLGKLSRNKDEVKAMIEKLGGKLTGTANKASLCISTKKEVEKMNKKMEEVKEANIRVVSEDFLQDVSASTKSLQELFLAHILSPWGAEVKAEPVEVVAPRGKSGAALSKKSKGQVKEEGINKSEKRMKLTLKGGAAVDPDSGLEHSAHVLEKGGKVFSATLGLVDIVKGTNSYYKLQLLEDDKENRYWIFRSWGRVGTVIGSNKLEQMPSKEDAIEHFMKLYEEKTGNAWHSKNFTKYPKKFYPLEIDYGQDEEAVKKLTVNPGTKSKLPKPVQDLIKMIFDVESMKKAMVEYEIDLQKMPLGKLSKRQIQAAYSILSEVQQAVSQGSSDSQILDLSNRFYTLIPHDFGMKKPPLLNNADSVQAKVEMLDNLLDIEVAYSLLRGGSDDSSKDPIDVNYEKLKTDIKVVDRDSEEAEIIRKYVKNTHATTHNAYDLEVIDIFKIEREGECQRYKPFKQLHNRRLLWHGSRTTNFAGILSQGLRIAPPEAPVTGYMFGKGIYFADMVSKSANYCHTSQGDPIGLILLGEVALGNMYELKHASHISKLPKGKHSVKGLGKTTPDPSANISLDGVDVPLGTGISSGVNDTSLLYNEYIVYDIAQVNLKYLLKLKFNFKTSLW
# [7] = biological target: TNKS2 (Homo sapiens, UniProt Q9H2K2); experiment: NAD+ quantification activity assay, TNKS2; format: biochemical; conditions: TNKS2 IC50, NAD+ 500 nM
# Chain of TNKS2 (Q9H2K2 959-1164): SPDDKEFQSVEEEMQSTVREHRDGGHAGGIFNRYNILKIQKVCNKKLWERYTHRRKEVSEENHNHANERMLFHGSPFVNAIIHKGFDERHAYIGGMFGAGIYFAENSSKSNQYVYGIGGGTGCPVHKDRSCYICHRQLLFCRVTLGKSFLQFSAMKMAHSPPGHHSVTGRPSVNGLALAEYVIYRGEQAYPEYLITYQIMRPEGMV
# Procedure: The activity assay used to measure the potency of the compounds against TNKS2 is based on the quantification of NAD^+[38]. The reactions were carried out in 96-well plate (Greiner bio-one, U-shaped) and the conditions were the same as reported earlier (Table S5)[24].
# The compounds were stored in 100% DMSO at −20 °C. All the compounds were diluted in the TNKS2 assay buffer (50 mM Bis-Tris Propane, 0.5 mM TCEP, 0.01% Triton-100x). Control reactions were used to exclude the effect of compound fluorescence and quenching from the calculations. […] The pIC50 values were calculated and fitted with nonlinear regression using 4-parameters with GraphPad Prism (version 5.0 for windows).
# Protein (nM) NAD+ (nM) Incubation Buffer
# Kinase [ATP] Substrate Incubation Reaction buffer
# [8] = system: Akt; experiment: Kinase functional assay (mobility shift), Akt; format: biochemical
# [9] = biological target: T3, ARTD15/PARP16 (Homo sapiens, UniProt Q8N5Y8); experiment: ARTD profiling, ARTD15
# T3 sequence (Q8N5Y8 1-322): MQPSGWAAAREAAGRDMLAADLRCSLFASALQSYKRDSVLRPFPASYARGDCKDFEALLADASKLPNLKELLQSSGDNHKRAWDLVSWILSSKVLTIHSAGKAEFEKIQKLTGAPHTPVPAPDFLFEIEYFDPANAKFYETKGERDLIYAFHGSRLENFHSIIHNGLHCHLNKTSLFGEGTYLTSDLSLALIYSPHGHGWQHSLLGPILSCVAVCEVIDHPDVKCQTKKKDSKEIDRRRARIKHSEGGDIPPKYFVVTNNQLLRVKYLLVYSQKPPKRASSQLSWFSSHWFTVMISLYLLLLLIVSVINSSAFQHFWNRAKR
# [10] = biological target: T4, ARTD12/PARP12 (Homo sapiens, UniProt Q9H0J9); experiment: ARTD profiling, ARTD12
# T4 sequence (Q9H0J9 484-698 limits assumed): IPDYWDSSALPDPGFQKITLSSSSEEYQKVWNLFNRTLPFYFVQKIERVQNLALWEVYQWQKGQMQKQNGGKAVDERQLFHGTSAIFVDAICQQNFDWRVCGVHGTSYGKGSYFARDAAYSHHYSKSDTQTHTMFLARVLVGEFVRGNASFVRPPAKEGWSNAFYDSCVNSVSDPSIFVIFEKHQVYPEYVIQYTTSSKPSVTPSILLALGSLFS
# [11] = biological target: ARTD8/PARP14 (Homo sapiens, UniProt Q460N5); experiment: ARTD profiling, ARTD8
# [12] = biological target: ERK2 (Homo sapiens, UniProt P28482); experiment: Kinase functional assay (mobility shift), ERK2 (p42); format: biochemical; conditions: read-out: ERK2 (% Inhib.); for inhibition at 1 µM: 1 µM compound, Table S3; for inhibition at 10 µM: 10 µM compound, Table S4
# Chain of ERK2 (P28482 whole entry, species assumed): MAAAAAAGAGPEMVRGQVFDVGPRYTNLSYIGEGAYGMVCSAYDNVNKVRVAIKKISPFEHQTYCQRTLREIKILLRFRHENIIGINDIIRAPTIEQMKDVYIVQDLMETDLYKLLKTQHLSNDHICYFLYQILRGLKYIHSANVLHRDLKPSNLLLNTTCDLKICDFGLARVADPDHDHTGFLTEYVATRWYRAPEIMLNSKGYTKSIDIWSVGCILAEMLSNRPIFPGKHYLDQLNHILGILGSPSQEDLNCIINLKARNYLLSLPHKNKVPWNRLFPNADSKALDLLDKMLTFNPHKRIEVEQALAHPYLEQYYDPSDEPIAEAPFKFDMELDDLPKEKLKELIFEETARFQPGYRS
SMILES,IC50 [1],IC50 [2],inhibition at 1 µM [3],inhibition at 10 µM [3],inhibition at 1 µM [4],inhibition at 10 µM [4],inhibition at 1 µM [5],inhibition at 10 µM [5],IC50 [6],IC50 [7],"AKT (% Inhib.) ([8]; 1 µM compound, Table S3)","AKT (% Inhib.) ([8]; 10 µM compound, Table S4)",IC50 [9],IC50 [10],IC50 [11],inhibition at 1 µM [12],inhibition at 10 µM [12]
CCN(CC)c1ccc(-c2nc3ccccc3c(=O)[nH]2)cc1 [Compound 32],> 10 µM,24 µM,2 ± 1%,2 ± 1%,1 ± 1%,4 ± 4%,13 ± 4%,16 ± 3%,30 µM,0.01 µM,1 ± 1%,48 ± 4%,> 10 µM,> 10 µM,> 10 µM,2 ± 1%,18 ± 3%
O=c1[nH]c(-c2ccc(N3CCCCC3)cc2)nc2ccccc12 [Compound 30],> 10 µM,8.6 µM,1 ± 1%,1 ± 1%,1 ± 1%,11 ± 3%,12 ± 4%,31 ± 4%,18 µM,0.015 µM,1 ± 1%,2 ± 2%,> 10 µM,> 10 µM,> 10 µM,2 ± 1%,3 ± 1%
